Data set [1] is classed as binding. The conditions noted are these: for hemin binding indicated by decrease of fluorescence intensity as hemin is added: pH 7.4; for estimated number of hemin molecules bound to the respective peptide: 25° C.
Data set [2] is classed as binding. To be noted: 1% DMSO.
Data set [3] deals with brain edema after traumatic brain injury. To be noted: in vivo, 8 mg/kg.
Data set [4] has as its system cultured neurons and astrocytes. To be noted: cited from earlier work.

The source of these data is patent publication US8993514B1 (The Florida State University Research Foundation, Inc., priority 2011, dated 2015).

Where “and” joins values, the source holds several entries; their conditions need not be identical. Equal values may be shown once. Read-outs that look alike come from different tables or passages of the source.

For “GQPHGGGWGQPHGGGWGQPHGGGWGQPHGGGWGQGGG (Synthetically generated peptide) [SEQ ID NO: 6, 4-repeat peptide of the octarepeat region with additional flanking residues]”, the “hemin binding indicated by decrease of fluorescence intensity as hemin is added” value in data set [1] is given as “hemin forms a chemical bond”. Also, the “estimated number of hemin molecules bound to the respective peptide” value in data set [1] (pH = 5.0) is 4.0; in data set [1] (pH = 7.4) it was 2.0. Also, the “hemin binding indicated by SPR response increasing with hemin concentration” value in data set [2] was “hemin binds to the respective peptide”.

Regarding PHGGGWGQPHGGGWGQ [SEQ ID NO: 3], the “hemin binding indicated by decrease of fluorescence intensity as hemin is added” value in data set [1] is reported as “hemin forms a chemical bond”. In addition, the “% water content of brain tissue from impacted region, individual rat” value in data set [3] is 80.93% and 77.24% and 80.98%. In addition, in data set [3] (rat), the “% water content of brain tissue from impacted region, average” value is on record as 79.72% and the “effect on brain swelling” value was “reduced the brain swelling”.

In the case of hemin, in data set [4], the “hemin concentration sufficient to kill 60%-70% of cultured neurons and astrocytes” value is 3 to 30 µM.
